# Experimental data published in ChEMBL document CHEMBL5715945 (Cancer Biol Ther, 2010).
# Active and inactive are the calls of the source. No cut-off for these calls is given here.
# Assays:
# ID8 = assay: Upregulation of FAK level in mouse ID8 cells harbouring mCherry red fluorescent protein at 0.1 to 1 uM incubated for 1 hr by immunoblotting analysis; type: functional, cell-based; settings: dose 0.1-1 µM
# [1] = molecular target: Focal adhesion kinase 1 (Mus musculus) (UniProt P34152); assay: Inhibition of FAK phosphorylation at Tyr397 residue in mouse ID8 cells harbouring mCherry red fluorescent protein at 0.1 to 1 uM incubated for 1 hr by immunoblotting analysis; type: cell-based; settings: dose 0.1-1 µM
# [2] = Metabolic stability in human liver microsomes assessed as half life; type: ADME, Microsome
# [3] = molecular target: Focal adhesion kinase 1 (Mus musculus) (UniProt P34152); assay: Inhibition of FAK phosphorylation at Tyr397 residue in mouse 4T1 cells harbouring mCherry red fluorescent protein at 0.1 to 1 uM incubated for 60 mins followed by compound washout measured after 60 mins by immunoblotting analysis; type: cell-based; settings: dose 0.1-1 µM
# 4T1 [4] = assay: Inhibition of cell migration in mouse 4T1 cells assessed as wound closure at 1 uM incubated for 22 hrs by wound healing assay (reference value: 89%); type: functional; set-up: scale not given: the % may be the effect or the level left
# 4T1 [5] = assay: Inhibition of cell migration in mouse 4T1 cells incubated for 4 hrs by millicell-motility assay; type: functional, cell-based; settings: dose 0.1-1 µM
# 4T1 [6] = assay: Induction of apoptosis in mouse 4T1 adherent cells at 1 uM incubated for 72 hrs by PI staining based flow cytometry analysis; type: functional, cell-based
# 4T1 [7] = assay: Induction of apoptosis in mouse 4T1 suspended cells at 0.1 uM incubated for 72 hrs by PI staining based flow cytometry analysis; type: functional, cell-based
# 4T1 [8] = assay: Induction of cell cycle arrest in mouse 4T1 adherent cells assessed as accumulation at G0/G1 phase at 1 uM measured after 72 hrs by PI staining based flow cytometry analysis (reference value: 81.3%); type: functional
# 4T1 [9] = assay: Induction of cell cycle arrest in mouse 4T1 adherent cells assessed as accumulation at G2/M phase at 1 uM measured after 72 hrs by PI staining based flow cytometry analysis (reference value: 5.6%); type: functional
# [10] = molecular target: Focal adhesion kinase 1 (Mus musculus) (UniProt P34152); assay: Inhibition of FAK phosphorylation at Y397 residue in mouse 4T1 adherent cells at 0.1 uM incubated for 24 hrs by immunoblotting analysis; type: cell-based
# 4T1 [11] = assay: Induction of apoptosis in mouse 4T1 adherent cells assessed as increase in cleaved caspase 3 expression at 0.4 uM incubated for 24 hrs by immunoblotting analysis; type: functional, cell-based
# 4T1 [12] = assay: Inhibition of colony formation in mouse 4T1 cells assessed as reduction in cell number measured after 10 days by phase contrast microscopy analysis; type: functional, cell-based; settings: dose 0.4-1 µM, time 10.0 day
# 4T1 [13] = assay: Induction of apoptosis in mouse 4T1 cells assessed as increase in cell membrane blebbing at 0.4 to 1 uM measured after 2 days by phase contrast microscopy analysis; type: functional, cell-based; settings: dose 0.4-1 µM, time 2.0 day
# 4T1 [14] = assay: Antitumor activity against mouse 4T1 cells harbouring mCherry red fluorescent protein implanted in BALB/c mouse assessed as increase in apoptosis in tumor at 30 to 100 mg/kg, sc bid measured after 5 days by TUNEL staining based microscopic analysis; type: functional, organism-based; settings: dose 30-100 mg/kg, time 5.0 day
# 4T1 [15] = assay: Antitumor activity against mouse 4T1 cells harbouring mCherry red fluorescent protein implanted in BALB/c mouse assessed as increase in cleaved caspase-3 in tumor at 30 to 100 mg/kg, sc bid measured after 5 days by Hoechst staining based microscopic analysis; type: functional, organism-based; settings: dose 30-100 mg/kg, time 5.0 day
# [16] = Toxicity in C57BL6 mouse implanted with mouse ID8 cells assessed as change in body weight at 0.5 mg/ml administered as solution in 5% sucrose measured after 30 days; type: cell-based; settings: id8, 720 h, time 30 day
# [17] = molecular target: Insulin receptor (Homo sapiens) (UniProt P06213); assay: Inhibition of IR (unknown origin) at 1 uM relative to control; values are per cent of control
# [18] = molecular target: ALK tyrosine kinase receptor (Homo sapiens) (UniProt Q9UM73); assay: Inhibition of ALK (unknown origin) at 1 uM relative to control; values are per cent of control
# [19] = molecular target: Epidermal growth factor receptor (Homo sapiens) (UniProt P00533); assay: Inhibition of EGFR (unknown origin) at 1 uM relative to control; values are per cent of control
# [20] = molecular target: Tyrosine-protein kinase JAK2 (Homo sapiens) (UniProt O60674); assay: Inhibition of JAK2 (unknown origin) at 1 uM relative to control; values are per cent of control
# [21] = molecular target: Serine/threonine-protein kinase Nek6 (Homo sapiens) (UniProt Q9HC98); assay: Inhibition of NEK6 (unknown origin) at 1 uM relative to control; values are per cent of control
# [22] = molecular target: High affinity nerve growth factor receptor (Homo sapiens) (UniProt P04629); assay: Inhibition of TrkA (unknown origin) at 1 uM relative to control; values are per cent of control
# [23] = molecular target: Vascular endothelial growth factor receptor 2 (Homo sapiens) (UniProt P35968); assay: Inhibition of KDR (unknown origin) at 0.1 uM relative to control; values are per cent of control
# [24] = molecular target: Tyrosine-protein kinase ABL1 (Homo sapiens) (UniProt P00519); assay: Inhibition of Abl (unknown origin) at 0.1 uM relative to control; values are per cent of control
# [25] = molecular target: Fibroblast growth factor receptor 1 (Homo sapiens) (UniProt P11362); assay: Inhibition of FGFR1 (unknown origin) at 1 uM relative to control; values are per cent of control
# [26] = molecular target: Rho-associated protein kinase 1 (Homo sapiens) (UniProt Q13464); assay: Inhibition of ROCK1 (unknown origin) at 1 uM relative to control; values are per cent of control
# [27] = molecular target: Dual specificity mitogen-activated protein kinase kinase 1 (Homo sapiens) (UniProt Q02750); assay: Inhibition of MEK1 (unknown origin) at 0.1 uM relative to control; values are per cent of control
# [28] = molecular target: Insulin-like growth factor 1 receptor (Homo sapiens) (UniProt P08069); assay: Inhibition of IGF-1R (unknown origin) at 1 uM relative to control; values are per cent of control
# [29] = molecular target: Proto-oncogene tyrosine-protein kinase Src (Homo sapiens) (UniProt P12931); assay: Inhibition of c-SRC (unknown origin) at 0.1 uM relative to control; values are per cent of control
# [30] = molecular target: Insulin-like growth factor 1 receptor (Homo sapiens) (UniProt P08069); assay: Inhibition of IGF-1R (unknown origin) at 0.1 uM relative to control; values are per cent of control
# [31] = molecular target: Tyrosine-protein kinase ZAP-70 (Homo sapiens) (UniProt P43403); assay: Inhibition of ZAP-70 (unknown origin) at 0.1 uM relative to control; values are per cent of control
# Tyrosine-protein kinase ZAP-70 (Homo sapiens), sequence (P43403 whole entry): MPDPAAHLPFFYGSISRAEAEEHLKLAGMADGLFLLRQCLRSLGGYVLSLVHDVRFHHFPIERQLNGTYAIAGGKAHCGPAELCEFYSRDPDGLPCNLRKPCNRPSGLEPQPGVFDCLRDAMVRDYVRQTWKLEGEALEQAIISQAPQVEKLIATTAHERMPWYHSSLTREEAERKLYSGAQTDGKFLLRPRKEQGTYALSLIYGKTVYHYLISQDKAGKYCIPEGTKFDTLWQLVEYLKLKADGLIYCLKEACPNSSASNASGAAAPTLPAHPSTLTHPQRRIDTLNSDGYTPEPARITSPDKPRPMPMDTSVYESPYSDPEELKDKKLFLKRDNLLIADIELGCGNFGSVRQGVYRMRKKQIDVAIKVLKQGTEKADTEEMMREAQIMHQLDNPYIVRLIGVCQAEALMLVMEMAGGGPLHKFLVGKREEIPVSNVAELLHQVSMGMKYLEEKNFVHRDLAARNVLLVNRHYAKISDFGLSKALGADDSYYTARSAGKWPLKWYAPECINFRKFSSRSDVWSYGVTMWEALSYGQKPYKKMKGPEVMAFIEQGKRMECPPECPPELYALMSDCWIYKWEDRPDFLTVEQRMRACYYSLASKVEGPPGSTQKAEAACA
# Focal adhesion kinase 1 (Mus musculus), sequence (P34152 whole entry): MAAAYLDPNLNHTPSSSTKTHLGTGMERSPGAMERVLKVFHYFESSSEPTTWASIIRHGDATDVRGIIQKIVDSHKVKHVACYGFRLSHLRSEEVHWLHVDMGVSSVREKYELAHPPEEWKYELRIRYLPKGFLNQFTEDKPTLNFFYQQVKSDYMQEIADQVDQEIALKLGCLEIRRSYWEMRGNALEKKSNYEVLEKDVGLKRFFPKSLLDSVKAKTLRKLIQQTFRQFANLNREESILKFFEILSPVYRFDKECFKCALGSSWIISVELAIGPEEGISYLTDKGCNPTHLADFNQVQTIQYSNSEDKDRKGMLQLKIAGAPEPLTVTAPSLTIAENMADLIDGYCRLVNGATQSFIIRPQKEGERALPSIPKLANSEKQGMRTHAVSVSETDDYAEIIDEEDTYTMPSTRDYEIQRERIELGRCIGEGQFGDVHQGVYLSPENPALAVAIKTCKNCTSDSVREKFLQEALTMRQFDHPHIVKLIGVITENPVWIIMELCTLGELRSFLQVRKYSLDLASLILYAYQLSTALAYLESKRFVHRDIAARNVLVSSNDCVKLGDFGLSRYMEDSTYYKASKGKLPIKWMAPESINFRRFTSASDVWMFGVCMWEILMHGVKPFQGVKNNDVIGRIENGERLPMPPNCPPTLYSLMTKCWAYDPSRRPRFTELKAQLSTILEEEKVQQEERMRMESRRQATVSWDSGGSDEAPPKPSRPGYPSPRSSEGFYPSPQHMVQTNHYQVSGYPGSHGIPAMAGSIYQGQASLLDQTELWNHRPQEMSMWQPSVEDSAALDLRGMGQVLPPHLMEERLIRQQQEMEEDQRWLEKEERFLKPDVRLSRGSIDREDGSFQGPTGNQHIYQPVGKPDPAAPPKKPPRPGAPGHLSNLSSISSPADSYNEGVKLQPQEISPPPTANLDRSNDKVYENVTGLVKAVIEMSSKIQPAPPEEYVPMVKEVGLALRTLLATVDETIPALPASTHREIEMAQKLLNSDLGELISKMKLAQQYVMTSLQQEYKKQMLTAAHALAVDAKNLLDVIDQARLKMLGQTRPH
# Insulin-like growth factor 1 receptor (Homo sapiens), sequence (P08069 31-736 limits assumed): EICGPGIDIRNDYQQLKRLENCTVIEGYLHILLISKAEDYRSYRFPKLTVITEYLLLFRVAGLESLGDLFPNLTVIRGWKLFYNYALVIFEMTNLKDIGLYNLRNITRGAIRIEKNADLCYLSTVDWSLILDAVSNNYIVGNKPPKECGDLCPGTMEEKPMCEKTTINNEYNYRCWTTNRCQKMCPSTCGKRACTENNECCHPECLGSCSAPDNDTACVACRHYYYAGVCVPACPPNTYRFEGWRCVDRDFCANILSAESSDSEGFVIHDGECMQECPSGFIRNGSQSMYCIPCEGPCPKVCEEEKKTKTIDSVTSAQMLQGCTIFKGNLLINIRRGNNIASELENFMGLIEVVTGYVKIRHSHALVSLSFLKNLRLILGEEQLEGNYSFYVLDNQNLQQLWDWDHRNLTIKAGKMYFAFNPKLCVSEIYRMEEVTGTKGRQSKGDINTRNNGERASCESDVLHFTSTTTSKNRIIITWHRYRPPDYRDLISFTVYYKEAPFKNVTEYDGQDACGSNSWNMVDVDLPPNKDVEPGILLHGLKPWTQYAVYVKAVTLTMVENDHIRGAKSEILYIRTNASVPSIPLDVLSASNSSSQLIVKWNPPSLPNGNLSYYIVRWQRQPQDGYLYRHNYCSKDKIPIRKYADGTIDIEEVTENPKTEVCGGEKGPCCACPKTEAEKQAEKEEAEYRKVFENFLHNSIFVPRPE
# Insulin-like growth factor 1 receptor (Homo sapiens), sequence (P08069 741-1367 limits assumed): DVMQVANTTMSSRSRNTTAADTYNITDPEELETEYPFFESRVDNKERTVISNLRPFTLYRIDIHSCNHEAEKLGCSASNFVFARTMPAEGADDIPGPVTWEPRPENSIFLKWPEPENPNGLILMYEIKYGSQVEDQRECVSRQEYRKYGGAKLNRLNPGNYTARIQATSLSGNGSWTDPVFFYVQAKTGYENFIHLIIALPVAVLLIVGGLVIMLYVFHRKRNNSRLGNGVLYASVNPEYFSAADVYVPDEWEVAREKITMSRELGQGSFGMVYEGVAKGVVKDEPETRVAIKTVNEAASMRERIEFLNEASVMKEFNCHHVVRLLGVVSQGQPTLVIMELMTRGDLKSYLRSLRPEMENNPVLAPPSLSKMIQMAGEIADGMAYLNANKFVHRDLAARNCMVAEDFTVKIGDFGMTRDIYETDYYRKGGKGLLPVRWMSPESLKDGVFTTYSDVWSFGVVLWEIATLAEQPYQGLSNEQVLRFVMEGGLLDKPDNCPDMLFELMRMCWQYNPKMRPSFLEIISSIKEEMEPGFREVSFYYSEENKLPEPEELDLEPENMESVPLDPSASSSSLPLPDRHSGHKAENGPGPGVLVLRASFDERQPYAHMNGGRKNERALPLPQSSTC
# Tyrosine-protein kinase ABL1 (Homo sapiens), sequence (P00519 whole entry): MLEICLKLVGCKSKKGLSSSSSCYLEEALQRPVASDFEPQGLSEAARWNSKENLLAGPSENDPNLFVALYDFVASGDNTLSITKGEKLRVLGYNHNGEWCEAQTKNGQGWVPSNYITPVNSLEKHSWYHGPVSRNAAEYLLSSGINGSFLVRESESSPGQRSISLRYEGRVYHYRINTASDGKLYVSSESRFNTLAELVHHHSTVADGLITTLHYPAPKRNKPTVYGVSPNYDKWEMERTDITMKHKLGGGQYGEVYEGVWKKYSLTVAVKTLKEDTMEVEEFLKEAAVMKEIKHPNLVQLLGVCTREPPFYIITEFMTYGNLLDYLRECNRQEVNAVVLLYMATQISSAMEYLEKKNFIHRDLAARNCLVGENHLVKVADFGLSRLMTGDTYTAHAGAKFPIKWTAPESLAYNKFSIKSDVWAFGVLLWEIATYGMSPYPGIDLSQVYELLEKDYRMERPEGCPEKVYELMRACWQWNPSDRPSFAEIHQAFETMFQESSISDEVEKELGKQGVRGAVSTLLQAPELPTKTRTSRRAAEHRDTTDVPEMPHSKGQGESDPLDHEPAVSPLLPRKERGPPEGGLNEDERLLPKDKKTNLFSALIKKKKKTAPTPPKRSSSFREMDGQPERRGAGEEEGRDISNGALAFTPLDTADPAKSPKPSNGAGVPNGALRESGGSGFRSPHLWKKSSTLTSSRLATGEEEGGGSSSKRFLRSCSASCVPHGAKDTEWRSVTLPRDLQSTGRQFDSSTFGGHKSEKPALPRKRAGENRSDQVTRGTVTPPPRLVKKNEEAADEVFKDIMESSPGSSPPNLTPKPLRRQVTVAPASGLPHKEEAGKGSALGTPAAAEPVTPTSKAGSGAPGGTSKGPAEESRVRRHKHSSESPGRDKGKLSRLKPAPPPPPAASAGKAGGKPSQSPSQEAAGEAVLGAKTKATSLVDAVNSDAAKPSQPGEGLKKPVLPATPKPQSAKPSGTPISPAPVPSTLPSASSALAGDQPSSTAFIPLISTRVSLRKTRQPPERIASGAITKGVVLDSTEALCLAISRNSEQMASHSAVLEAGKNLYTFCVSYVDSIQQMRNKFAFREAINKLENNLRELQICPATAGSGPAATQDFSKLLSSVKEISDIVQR
# Dual specificity mitogen-activated protein kinase kinase 1 (Homo sapiens), sequence (Q02750 whole entry): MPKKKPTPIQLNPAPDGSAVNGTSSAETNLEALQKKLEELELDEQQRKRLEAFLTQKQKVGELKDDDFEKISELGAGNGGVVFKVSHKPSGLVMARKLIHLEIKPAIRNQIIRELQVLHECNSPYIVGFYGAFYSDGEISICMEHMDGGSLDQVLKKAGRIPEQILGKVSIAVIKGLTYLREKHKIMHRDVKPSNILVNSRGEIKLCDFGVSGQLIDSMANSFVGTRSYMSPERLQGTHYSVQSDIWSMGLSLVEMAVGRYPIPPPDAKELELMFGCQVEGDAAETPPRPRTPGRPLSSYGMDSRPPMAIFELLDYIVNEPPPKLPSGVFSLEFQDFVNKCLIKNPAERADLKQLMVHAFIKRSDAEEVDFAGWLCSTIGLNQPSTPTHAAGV
# Proto-oncogene tyrosine-protein kinase Src (Homo sapiens), sequence (P12931 2-536 limits assumed): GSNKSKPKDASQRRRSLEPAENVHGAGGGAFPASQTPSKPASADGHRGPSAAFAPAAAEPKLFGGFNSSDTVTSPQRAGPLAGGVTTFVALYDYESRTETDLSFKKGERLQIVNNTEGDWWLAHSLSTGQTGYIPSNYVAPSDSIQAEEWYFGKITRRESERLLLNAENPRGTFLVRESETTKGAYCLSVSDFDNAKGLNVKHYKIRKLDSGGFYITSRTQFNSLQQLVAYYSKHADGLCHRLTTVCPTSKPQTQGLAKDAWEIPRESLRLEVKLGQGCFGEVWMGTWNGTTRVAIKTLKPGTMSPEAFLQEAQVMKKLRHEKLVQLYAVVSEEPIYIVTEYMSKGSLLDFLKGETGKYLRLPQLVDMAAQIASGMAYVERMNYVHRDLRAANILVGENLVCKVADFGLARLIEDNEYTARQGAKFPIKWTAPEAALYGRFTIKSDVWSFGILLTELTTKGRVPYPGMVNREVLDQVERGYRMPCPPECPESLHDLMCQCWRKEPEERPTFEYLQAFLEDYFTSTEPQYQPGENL
structure (smiles),measurement,setting,value
CNC(=O)c1ccccc1Nc1cc(Nc2ccc(N3CCOCC3)cc2OC)ncc1C(F)(F)F [VS-4718],Activity,ID8,Active
same,inhibition,[1],Active
same,half-life,[2],32 min
same,inhibition,[3],inactive
same,Activity,4T1 [4],40%
same,inhibition,4T1 [5],Dose-Dependent Effect
same,Activity,4T1 [6],Active
same,Activity,4T1 [7],Active
same,Activity,4T1 [8],84.4%
same,Activity,4T1 [9],5.6%
same,inhibition,[10],Active
same,Activity,4T1 [11],inactive
same,inhibition,4T1 [12],Dose-Dependent Effect
same,Activity,4T1 [13],Active
same,Activity,4T1 [14],Active
same,Activity,4T1 [15],Active
same,Activity,[16],Non-Toxic
same,residual activity,[17],40%
same,residual activity,[18],127%
same,residual activity,[19],106%
same,residual activity,[20],96%
same,residual activity,[21],107%
same,residual activity,[22],27%
same,residual activity,[23],118%
same,residual activity,[24],104%
same,residual activity,[25],97%
same,residual activity,[26],90%
same,residual activity,[27],79%
same,residual activity,[28],110%
same,residual activity,[29],98%
same,residual activity,[30],123%
same,residual activity,[31],70%
